The values below come from patent US6713506B2, “Tea polyphenol esters and analogs thereof for cancer prevention and treatment” (University of South Florida, priority 2000, dated 2004).

Each structure is given as a SMILES string. Entries after “also recorded” stand apart in the source; their conditions may differ.

The term IC50 denotes the concentration at which inhibition is half-maximal.

Experiment [1] deals with p27, IκB-α, ubiquitinated proteins, Bax in Jurkat T cells. The experiment in a line: Western blot of proteasome substrates in Jurkat T cells. The class given is cell-based, human. Particulars: for levels of p27: intact Jurkat T cells, 1 or 10 μM, 12 h. How it is done:
FIG. 5. Western blot analysis. A, Jurkat T cells are treated with 1 or 10 μM of EGCG or EGC for 12 h, or B, C, 25 μM of EGCG for various times, followed by Western blot assay using specific antibodies to p27, IκB-α, ubiquitin or actin, as indicated. MWs of IκB-α and actin are 40 and 43 kDa, respectively. The band of 56 kDa, indicated by an arrow in (B), is an ubiquitinated or phosphorylated form of IκB-α. The bands indicated in (C) are ubiquitin-containing proteins. D, LNCaP cells are treated with 1 or 10 μM of EGCG for 12 h. Western bot is performed as described above. E, F, Jurkat T cells are pretreated with 10 μg/ml cycloheximide for 2 hr, followed by co-incubation with 1 or 10 μM of EGCG for 8 or 12 hr as indicated. The p70 is a putative ubiquitinated p27-containing complex (An et al., 1998, Cell Death Differ 5: 1062-75).
FIG. 11. Western blot assay. Western blot assay is performed using specific antibodies to p27^Kip, Bax, poly(ADP-ribose) polymerase (PARP), or actin. Jurkat T cells are treated with 50 μg/ml of tannic acid for 4, 12 or 24 h. Cells are harvested and lysated using the whole lysis buffer (50 mM Tris-HCl, pH 8.0, 5 mM EDTA, 150 mM NaCl, 0.5% NP-40, 0.5 mM PMSF, and 0.5 mM DTT). Cell lysates (70 μg) are separated on a sodium dodecyl sulfate-polyacrylamide gel electrophoresis (SDS-PAGE), followed by Western blot analysis.
Western blot analysis—Western blot assay is performed as described previously (An et al., (1998) Cell Death Differ 5(12), 1062-75) using specific antibodies to p27^Kip (monoclonal; Pharmingen), IκB-α (polyclonal; Santa Cruz), ubiquitin (polyclonal; Sigma) or actin (polyclonal; Santa Cruz). In brief, Jurkat T or LNCaP cells are treated with EGCG or EGC in dose-response or time-dependent manner. Cells are harvested and lysated using the whole lysis buffer. Cell lysates (70 μg) are separated by a sodium dodecyl sulfate-polyacrylamide gel electrophoresis (SDS-PAGE) and then, electrophoretically transferred to a nitrocellulose membrane. Immunocomplexes are detected using the ECL detection reagents kit (Amersham, Piscataway, N.J.).
(In general: Immunoblotting shows a protein as a band on a membrane.)

In experiment [2] the target is chymotrypsin-like activity of purified 20S proteasome (UniProt Q9P992). It counts as biochemical. How it is done: FIG. 8. […] A). […] Initially, 0.5 μg of purified 20S proteasome is incubated with 20 μM of a fluorogenic peptide substrate, Suc-Leu-Leu-Val-Tyr-AMC, for 30 min at 37° C. in 100 μl of assay buffer (20 mM Tris-HCl, pH 8.0) with various concentrations of tannic acid. After incubation, the reaction mixture is diluted to 200 μl with the assay buffer, followed by measurement of the hydrolyzed 7-amido-4-methyl-coumarin (AMC) groups using a fluorometer with an excitation filter of 380 nm and an emission filter of 460 nm. B). […] Tannic acid (0.3 μg/ml) and Glucose (180 μg/ml) are used in the proteasome activity assay as described above. C). […] Purified calpain I (3 μg) protein is incubated with 40 μM of a fluorogenic peptide substrate, Suc-Leu-Tyr-AMC, for 30 min at 37° C. in 100 μl of assay buffer (50 mM Tris-HCl, pH 7.5, containing 50 mM NaCl, 1 mM EDTA, 1 mM EGTA, 5 mM β-Mercaptoethanol, 5 mM CaCl2, and 0.1% CHAPS) in the absence (control) or presence of 5 μg/ml of tannic acid or 0.18 μg/ml of calpeptin (calpain inhibitor).
Inhibition of the proteasome activity in vitro by tea polyphenols—To measure the 20S proteasome chymotrypsin-like activity, 0.5 μg of a purified 20S proteasome (Calbiochem) is incubated with 20 μM of a fluorogenic peptide substrate, Suc-Leu-Leu-Val-Tyr-AMC (Calbiochem), for 30 min at 37° C. in 100 μl of assay buffer (20 mM Tris-HCl, pH 8.0), with or without tea polyphenols (purity >95%; Sigma) or tea extract. After incubation, the reaction mixture is diluted to 200 μl with the assay buffer, followed by measurement of the hydrolyzed 7-amido-4-methyl-coumarin (AMC) groups using a VersaFluor™ Fluorometer with an excitation filter of 380 nm and an emission filter of 460 nm (Bio-Rad).

The next experiment relates to Jurkat T cells. The experiment in a line: Cell cycle analysis by flow cytometry, Jurkat T cells. The class given is cell-based, human. The protocol:
FIG. 6. Cell cycle analysis. Asynchronous Jurkat, LNCaP, WI-38, and VA-13 cells are treated with 10 μM EGCG and harvested at the time points indicated. Cells are prepared and analyzed by flow cytometry as described in the The Materials and Methods section of Example 1. Growth arrest is determined by the increase in the percentage of G1 population.
FIG. 12. […] Jurkat T cells are treated with either 50 μg/ml of tannic acid or buffer (−) for up to 48 h. The harvested cells are fixed, resuspended in 1 ml of PBS containing 50 μg/ml of propidium iodide (PI), 100 U/ml of RNase A, and 1 mg/ml of glucose, and analyzed by flow cytometry. Percentages of cells containing G1 S, G2 and M DNA content are indicated. Percentages of the apoptotic cell population containing sub-G1 DNA content is also indicated. Note: tannic acid treatment results in ˜23% increase in G1 and ˜14% increase in apoptotic cell populations.
Cell cycle analysis—Cell cycle analysis based on DNA content is performed as follows. Cells are harvested, counted and washed twice with PBS. Cells (5×10^6 ) are then suspended in 0.5 ml PBS, pipetted and fixed in 5 ml of 70% ethanol for at least 2 h at −20° C. Cells are centrifuged, resuspended in 1 ml of propidium iodide staining solution (50 μg propidium iodide, 100 units RNase A and 1 mg glucose per ml PBS) and incubated at room temperature for 30 min. The cells are then analyzed with FACScan (Becton Dickinson Immunocytometry, CA.), ModFit LT and WinMDI V.2.8 cell cycle analysis software (Verity Software, Topsham, Me.). The cell cycle distribution is shown as the percentage of cells containing G1, S, G2, and M DNA judged by propidium iodide staining.
In general terms: In flow cytometry, cells or beads pass a laser one at a time.

Where [3] appears, read: Jurkat T cells, 25 μM EGCG, various times.
The mark [4] stands for this setting: cycloheximide-pretreated Jurkat T cells, 10 μM.
Where [5] appears, read: tannic acid 50 μg/ml, up to 48 h.

chymotrypsin-like activity of purified 20S proteasome, sequence (Q9P992 whole entry): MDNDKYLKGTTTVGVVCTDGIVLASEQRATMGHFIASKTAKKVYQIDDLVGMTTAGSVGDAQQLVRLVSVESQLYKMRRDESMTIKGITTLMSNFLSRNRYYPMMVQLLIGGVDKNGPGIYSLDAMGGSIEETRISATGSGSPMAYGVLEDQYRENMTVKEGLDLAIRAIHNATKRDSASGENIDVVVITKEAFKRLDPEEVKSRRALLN

In the case of `Oc1cc(O)c2c(c1)O[C@H](c1cc(O)c(O)c(O)c1)[C@H](O)C2` [EGC, (−)-epigallocatechin], the “levels of p27” value in experiment [1] is “does not”. Moreover, the “fold less potent than EGCG” value in experiment [2] (ratio of IC50 to EGCG) is given as 14,000 fold.
With `O=C(O[C@@H]1Cc2c(O)cc(O)cc2O[C@@H]1c1cc(O)c(O)c(O)c1)c1cc(O)c(O)c(O)c1` [EGCG, (−)-epigallocatechin-3-gallate], in experiment [1] (setting [3]), the “levels of IκB-α” value was “increases” and the “levels of ubiquitinated proteins” value is listed as “increases”. Also, in experiment [1] (setting [4]), the “levels of IκB protein” value is on record as “increases” and the “levels of p27 protein” value is listed as “dramatically increased”. In addition, the “level of p70 (putative ubiquitinated p27-containing protein)” value in experiment [1] (cycloheximide-pretreated Jurkat T cells, co-incubation) is “increase”. Also, in experiment [1] (cycloheximide-pretreated Jurkat T cells, same concentration (10 μM)), the “induction of IκB expression compared with LLnV” value was “even greater than that of the proteasome inhibitor LLnV”. The “levels of p27” value in experiment [1] is reported as “greatly increases”. Further, the “increase in G1 population” value with Jurkat T cells (10 μM, 24 h) is given as 10%. The half-maximal inhibitory concentration (IC50) in experiment [2] (read-out: IC50 towards the chymotrypsin-like activity of purified 20S proteasome) worked out at 86 nM.
Consider `O=C(OC[C@H]1O[C@@H](OC(=O)c2cc(O)c(O)c(OC(=O)c3cc(O)c(O)c(O)c3)c2)[C@H](OC(=O)c2cc(O)c(O)c(OC(=O)c3cc(O)c(O)c(O)c3)c2)[C@@H](OC(=O)c2cc(O)c(O)c(OC(=O)c3cc(O)c(O)c(O)c3)c2)[C@@H]1OC(=O)c1cc(O)c(O)c(OC(=O)c2cc(O)c(O)c(O)c2)c1)c1cc(O)c(O)c(OC(=O)c2cc(O)c(O)c(O)c2)c1` [tannic acid], for which the “p27Kip and Bax levels” value in experiment [1] (Jurkat T cells, tannic acid 50 μg/ml, 4, 12 or 24 h) is reported as “induction”. In addition, the “G1 arrest and apoptosis (in words)” value in the experiment on Jurkat T cells (tannic acid) is “induces G1 arrest and apoptosis”. In the experiment with Jurkat T cells (setting [5]), the “increase in G1 cell population” value is around 23% and the “increase in apoptotic cell population (sub-G1)” value is given as around 14%. In experiment [2], the “inhibition of purified 20S proteasome chymotrypsin-like activity (in words)” value is recorded as “concentration-dependent; also recorded: inhibited”. The “inhibition of chymotrypsin-like activity of the proteasome (in words)” value in experiment [2] (tannic acid 0.3 μg/ml, glucose 180 μg/ml) is given as “inhibited”.
